Data on one compound can be found in article PMC5491371 (Clinical cancer research : an official journal of the …, 2016).

In this assay the target is T1, ITK (Homo sapiens, UniProt Q08881).
T1 sequence (Q08881 1-620): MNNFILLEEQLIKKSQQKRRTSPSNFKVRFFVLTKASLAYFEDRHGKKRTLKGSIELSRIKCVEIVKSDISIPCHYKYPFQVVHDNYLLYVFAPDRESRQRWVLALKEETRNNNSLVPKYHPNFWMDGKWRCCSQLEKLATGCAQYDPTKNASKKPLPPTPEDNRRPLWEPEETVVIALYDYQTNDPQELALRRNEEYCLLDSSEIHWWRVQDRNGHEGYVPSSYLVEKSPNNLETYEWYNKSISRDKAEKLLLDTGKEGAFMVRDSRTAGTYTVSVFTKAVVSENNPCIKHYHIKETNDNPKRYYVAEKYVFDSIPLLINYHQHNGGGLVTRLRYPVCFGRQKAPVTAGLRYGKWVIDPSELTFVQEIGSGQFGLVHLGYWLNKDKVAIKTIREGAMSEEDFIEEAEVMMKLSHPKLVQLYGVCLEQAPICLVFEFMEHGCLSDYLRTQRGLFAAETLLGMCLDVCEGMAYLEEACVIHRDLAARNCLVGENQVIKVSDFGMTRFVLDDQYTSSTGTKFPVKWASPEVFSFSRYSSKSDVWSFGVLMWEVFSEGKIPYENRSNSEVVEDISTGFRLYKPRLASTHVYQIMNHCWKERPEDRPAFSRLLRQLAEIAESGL
In kind it is cell-based. The settings on record: Jurkat, read-out: % inhibition at 1 μM.

For orientation: inhibition means the drop in the measured response relative to a control, in per cent. With `C=CC(=O)N1CCC[C@@H](n2nc(-c3ccc(Oc4ccccc4)cc3)c3c(N)ncnc32)C1` [ibrutinib], the inhibition at 1 µM is above 90%.
